System: various species of microorganism
Test: Well diffusion / Kirby-Bauer test, zones of inhibition
Format: cell-based
Settings: SA and ASA tested alone, without A^3IS
Experimental: The purpose of the Kirby-Bauer disk diffusion susceptibility test is to determine the sensitivity or resistance of pathogenic aerobic and facultative anaerobic bacteria to various antimicrobial compounds.
Escherichia coli (NCIMB 8545), Staphylococcus aureus (NCIMB 951 and Pseudomonas aeruginosa (NCIMB 8626) are grown on nutrient agar or in nutrient broth for 24 hrs at 37° C.
Candida albicans (NCIMB 3179) and Saccharomyces cerevisiae are grown on sabaroud dextrose agar or in sabaroud dextrose broth for 24 hrs at 37° C.,
Bacterial growth is monitored by measuring the culture optical density (OD) in a spectrophotometer (Anthos 2010) at a wavelength of 620 nm.
Agar plates are inoculated by swabbing overnight culture onto the plate surface. Plates are allowed to stand at room temperature for 15 minutes before use. Wells 8.2 mm diameter are bored into the surface of the agar. A 180 μl sample is placed into each well. The samples diffuse into the agar around the well and are assayed for an ability to produce a zone of inhibition. Plates are incubated for 24, 48 or 72 hrs and zones of inhibition are measured using an Autodata automatic zone reader. The diameter of zones, including the diameter of the well (8.2 mm), is recorded.
Different microbial strains were each plated out according to the above-mentioned methods. […]

Q: Which antimicrobial activity does the source give for `CC(=O)Oc1ccccc1C(=O)O` [ASA, Acetyl salicylic acid] here?
A: no discernible activity

Q: With `O=C(O)c1ccccc1O` [SA, Salicylic acid] as the compound, how does the antimicrobial activity read?
A: no discernible activity

— US20230050070A1, “Antimicrobial Composition” (ATLANTIC TECHNOLOGIECAL UNIVERSITY, priority 2019, published 2023)
